In US8329717B2, “Pyrimidine derivatives and their use for controlling undesired plant growth” (Bayer Cropscience AG, priority 2008, dated 2012):

Legend:
PHBPU = assay: Post-emergence herbicidal effect; assay type: in vivo; settings: Dosage 320 g/ha, one-leaf stage, visual scoring after ca. 3 weeks vs untreated controls, 100% = plants have died
Procedure: (§1) 2. Post-Emergence Herbicidal Effect and Crop Plant Compatibility Seeds of monocotyledonous or dicotyledonous weed plants or crop plants are planted in wood-fiber pots in sandy loam, covered with earth and grown in a greenhouse under good growth conditions. 2 to 3 weeks after sowing, the test plants are treated in the one-leaf stage. The compounds according to the invention, formulated in the form of wettable powders (WP) or as emulsion concentrates (EC), are then sprayed onto the green plant parts as aqueous suspension or emulsion at a water application rate of 600 to 800 l/ha (converted) with the addition of 0.2% of wetting agent. The dosage of the compounds according to the invention is given in grams per hectare. After ca. 3 weeks' standing time of the test plants in the greenhouse under optimum growth conditions, the effect of the preparations is scored visually in comparison with untreated controls (herbicidal effect in percent (%): 100% effect=plants have died, 0% effect=as control plants).

Abutilon theophrasti = assay: Post-emergence herbicidal effect; assay type: in vivo; settings: Dosage 320 g/ha, one-leaf stage, visual scoring after ca. 3 weeks vs untreated controls, 100% = plants have died
Procedure: as §1, with “The following abbreviations are used in the tables below: [table] 2.” for “2.”

Amaranthus retroflexus [1] = assay: Post-emergence herbicidal effect; assay type: in vivo; settings: Dosage 320 g/ha, one-leaf stage, visual scoring after ca. 3 weeks vs untreated controls, 100% = plants have died
Procedure: as §1, with “The following abbreviations are used in the tables below: [table] 2.” for “2.”

Echinochloa crus-galli [2] = assay: Post-emergence herbicidal effect; assay type: in vivo; settings: Dosage 320 g/ha, one-leaf stage, visual scoring after ca. 3 weeks vs untreated controls, 100% = plants have died
Procedure: as §1, with “The following abbreviations are used in the tables below: [table] 2.” for “2.”

Lolium multiflorum [3] = assay: Post-emergence herbicidal effect; assay type: in vivo; settings: Dosage 320 g/ha, one-leaf stage, visual scoring after ca. 3 weeks vs untreated controls, 100% = plants have died
Procedure: as §1, with “The following abbreviations are used in the tables below: [table] 2.” for “2.”

Polygonum convolvulus [4] = assay: Post-emergence herbicidal effect; assay type: in vivo; settings: Dosage 320 g/ha, one-leaf stage, visual scoring after ca. 3 weeks vs untreated controls, 100% = plants have died
Procedure: as §1, with “The following abbreviations are used in the tables below: [table] 2.” for “2.”

Setaria viridis [5] = assay: Post-emergence herbicidal effect; assay type: in vivo; settings: Dosage 320 g/ha, one-leaf stage, visual scoring after ca. 3 weeks vs untreated controls, 100% = plants have died
Procedure: as §1, with “The following abbreviations are used in the tables below: [table] 2.” for “2.”

Stellaria media [6] = assay: Post-emergence herbicidal effect; assay type: in vivo; settings: Dosage 320 g/ha, one-leaf stage, visual scoring after ca. 3 weeks vs untreated controls, 100% = plants have died
Procedure: as §1, with “The following abbreviations are used in the tables below: [table] 2.” for “2.”

Veronica persica [7] = assay: Post-emergence herbicidal effect; assay type: in vivo; settings: Dosage 320 g/ha, one-leaf stage, visual scoring after ca. 3 weeks vs untreated controls, 100% = plants have died
Procedure: as §1, with “The following abbreviations are used in the tables below: [table] 2.” for “2.”

Viola tricolor [8] = assay: Post-emergence herbicidal effect; assay type: in vivo; settings: Dosage 320 g/ha, one-leaf stage, visual scoring after ca. 3 weeks vs untreated controls, 100% = plants have died
Procedure: as §1, with “The following abbreviations are used in the tables below: [table] 2.” for “2.”

[9] = logp (HCOOH), chemicophysical data; settings: for chromatographic logP: HCOOH (formic acid)
Alopecurus myosuroides [10] = assay: Pre-emergence herbicidal effect; assay type: in vivo; settings: Dosage 320 g/ha, visual scoring after 3 weeks vs untreated controls, 100% = plants have died
Excerpt: (§2) 1. Pre-Emergence Herbicidal Effect and Crop Plant Compatibility Seeds of monocotyledonous or dicotyledonous weed plants or crop plants are planted in wood-fiber pots in sandy loam and covered with earth. The compounds according to the invention, formulated in the form of wettable powders (WP) or as emulsion concentrates (EC), are then applied as aqueous suspension or emulsion at a water application rate of 600 to 800 l/ha (converted) with the addition of 0.2% of wetting agent to the surface of the covering earth. The dosage of the compounds according to the invention is given in grams per hectare. Following the treatment, the pots are placed in a greenhouse and kept under good growth conditions for the test plants. The visual scoring of the damage on the test plants is carried out after an experiment time of 3 weeks in comparison with untreated controls (herbicidal effect in percent (%): 100% effect=plants have died, 0% effect=as control plants). The following abbreviations are used in the tables below: [table]

Amaranthus retroflexus [11] = assay: Pre-emergence herbicidal effect; assay type: in vivo; settings: Dosage 320 g/ha, visual scoring after 3 weeks vs untreated controls, 100% = plants have died
Excerpt: as §2

Avena fatua = assay: Pre-emergence herbicidal effect; assay type: in vivo; settings: Dosage 320 g/ha, visual scoring after 3 weeks vs untreated controls, 100% = plants have died
Excerpt: as §2

Echinochloa crus-galli [12] = assay: Pre-emergence herbicidal effect; assay type: in vivo; settings: Dosage 320 g/ha, visual scoring after 3 weeks vs untreated controls, 100% = plants have died
Excerpt: as §2

Lolium multiflorum [13] = assay: Pre-emergence herbicidal effect; assay type: in vivo; settings: Dosage 320 g/ha, visual scoring after 3 weeks vs untreated controls, 100% = plants have died
Excerpt: as §2

Matricaria inodora [14] = assay: Pre-emergence herbicidal effect; assay type: in vivo; settings: Dosage 320 g/ha, visual scoring after 3 weeks vs untreated controls, 100% = plants have died
Excerpt: as §2

Polygonum convolvulus [15] = assay: Pre-emergence herbicidal effect; assay type: in vivo; settings: Dosage 320 g/ha, visual scoring after 3 weeks vs untreated controls, 100% = plants have died
Excerpt: as §2

Setaria viridis [16] = assay: Pre-emergence herbicidal effect; assay type: in vivo; settings: Dosage 320 g/ha, visual scoring after 3 weeks vs untreated controls, 100% = plants have died
Excerpt: as §2

Stellaria media [17] = assay: Pre-emergence herbicidal effect; assay type: in vivo; settings: Dosage 320 g/ha, visual scoring after 3 weeks vs untreated controls, 100% = plants have died
Excerpt: as §2

Veronica persica [18] = assay: Pre-emergence herbicidal effect; assay type: in vivo; settings: Dosage 320 g/ha, visual scoring after 3 weeks vs untreated controls, 100% = plants have died
Excerpt: as §2

Viola tricolor [19] = assay: Pre-emergence herbicidal effect; assay type: in vivo; settings: Dosage 320 g/ha, visual scoring after 3 weeks vs untreated controls, 100% = plants have died
Excerpt: as §2

Matricaria inodora [20] = assay: Post-emergence herbicidal effect; assay type: in vivo; settings: Dosage 320 g/ha, one-leaf stage, visual scoring after ca. 3 weeks vs untreated controls, 100% = plants have died
Procedure: as §1, with “The following abbreviations are used in the tables below: [table] 2.” for “2.”

Cyperus esculentus = assay: Pre-emergence herbicidal effect; assay type: in vivo; settings: Dosage 320 g/ha, visual scoring after 3 weeks vs untreated controls, 100% = plants have died
Excerpt: as §2

Alopecurus myosuroides [21] = assay: Post-emergence herbicidal effect; assay type: in vivo; settings: Dosage 320 g/ha, one-leaf stage, visual scoring after ca. 3 weeks vs untreated controls, 100% = plants have died
Procedure: as §1, with “The following abbreviations are used in the tables below: [table] 2.” for “2.”

Structure (SMILES) | Post-emergence herbicidal effect PHBPU (PHBPU) [%] | Post-emergence herbicidal effect ABUTH (Abutilon theophrasti) [%] | Post-emergence herbicidal effect AMARE (Amaranthus retroflexus [1]) [%] | Post-emergence herbicidal effect ECHCG (Echinochloa crus-galli [2]) [%] | Post-emergence herbicidal effect LOLMU (Lolium multiflorum [3]) [%] | Post-emergence herbicidal effect POLCO (Polygonum convolvulus [4]) [%] | Post-emergence herbicidal effect SETVI (Setaria viridis [5]) [%] | Post-emergence herbicidal effect STEME (Stellaria media [6]) [%] | Post-emergence herbicidal effect VERPE (Veronica persica [7]) [%] | Post-emergence herbicidal effect VIOTR (Viola tricolor [8]) [%] | logp (HCOOH) [9] | Pre-emergence herbicidal effect ALOMY (Alopecurus myosuroides [10]) [%] | Pre-emergence herbicidal effect AMARE (Amaranthus retroflexus [11]) [%] | Pre-emergence herbicidal effect ECHCG (Echinochloa crus-galli [12]) [%] | Pre-emergence herbicidal effect LOLMU (Lolium multiflorum [13]) [%] | Pre-emergence herbicidal effect MATIN (Matricaria inodora [14]) [%] | Pre-emergence herbicidal effect SETVI (Setaria viridis [16]) [%] | Pre-emergence herbicidal effect STEME (Stellaria media [17]) [%] | Pre-emergence herbicidal effect VERPE (Veronica persica [18]) [%] | Pre-emergence herbicidal effect VIOTR (Viola tricolor [19]) [%] | also measured
Cc1nc(NC2c3ccccc3CC2C)nc(N)c1C#N (racemic) [Example 1.23] | 80 | 80 | 80 | 100 | 90 | 100 | 90 | 90 | 90 | 90 | solid; logp (HCOOH): 1.99; 1H-NMR (CDCl3, 400 MHZ, δ in ppm): 1.25 (d, 3H, CH3); |  |  |  |  |  |  |  |  |  | 
Cc1nc(NC2CCc3ccc(C(C)C)cc32)nc(N)c1C#N (racemic) [Example 1.28] |  | 90 | 90 | 90 |  | 90 |  |  | 90 | 90 | wax-like; logp (HCOOH): 2.68; 1H-NMR (CDCl3, 400 MHZ, δ in ppm): 1.20 (d, 6H, CH3); |  |  |  |  |  |  |  |  |  | 
Cc1ccc2c(c1)[C@H](Nc1nc(C)c([N+](=O)[O-])c(N)n1)[C@@H](C)C2 [Example 1.120] | 100 | 90 | 90 | 100 |  | 80 | 85 | 85 | 90 | 90 |  | 100 | 100 | 100 | 90 | 100 | 100 | 100 | 100 | 100 | Pre-emergence herbicidal effect AVEFA (Avena fatua): 80%; Pre-emergence herbicidal effect POLCO (Polygonum convolvulus [15]): 100%; Post-emergence herbicidal effect MATIN (Matricaria inodora [20]): 80%
Cc1ccc2c(c1)[C@H](Nc1nc(N)cc(Cl)n1)[C@@H](C)C2 [Example 1.75] | 90 |  | 90 | 85 |  | 80 |  | 87 | 85 |  |  | 100 | 100 | 100 | 95 | 100 | 95 | 100 | 100 | 100 | Pre-emergence herbicidal effect AVEFA (Avena fatua): 90%; Pre-emergence herbicidal effect POLCO (Polygonum convolvulus [15]): 100%
Cc1ccc2c(c1)[C@H](Nc1ncc(C#C[Si](C)(C)C)c(N)n1)[C@@H](C)C2 [Example 1.98, N2-[(1R,2S)-2,6-Dimethyl-2,3-dihydro-1H-inden-1-yl]-5-[(trimethylsilyl)ethynyl]-pyrimidine-2,4-diamine] |  |  |  |  |  |  |  |  |  |  |  |  | 80 |  |  | 80 | 80 | 100 | 100 | 100 | Pre-emergence herbicidal effect CYPES (Cyperus esculentus): 100%; chromatographic logP [9]: 2.28
CCc1nc(N[C@@H]2CCc3ccccc32)nc(N)c1C#N [Example 1.62, 4-Amino-2-[(1R)-2,3-dihydro-1H-inden-1-ylamino]-6-ethylpyrimidine-5-carbonitrile] | 80 |  |  | 90 | 90 | 80 |  | 80 | 80 |  |  | 80 |  | 100 | 80 | 90 | 90 | 100 | 100 | 100 | Post-emergence herbicidal effect ALOMY (Alopecurus myosuroides [21]): 80%; chromatographic logP [9]: 2.18
Cc1nc(NC2CCc3ccccc32)nc(N)c1C#N (racemic) [Example 1.24] |  |  |  | 90 | 100 |  |  | 100 | 90 |  |  |  |  |  |  |  |  |  |  |  | Post-emergence herbicidal effect MATIN (Matricaria inodora [20]): 80%
CC[C@H]1Cc2ccc(C)cc2[C@@H]1Nc1nc(C)c(C#N)c(N)n1 [Example 1.96] | 90 | 85 | 85 | 85 | 90 | 85 | 85 | 95 | 85 | 85 |  | 100 | 100 | 100 | 100 | 100 | 100 | 100 | 100 | 100 | Pre-emergence herbicidal effect AVEFA (Avena fatua): 80%; Pre-emergence herbicidal effect POLCO (Polygonum convolvulus [15]): 100%; Post-emergence herbicidal effect ALOMY (Alopecurus myosuroides [21]): 80%
Cc1nc(NC2CCOc3ccccc32)nc(N)c1C#N (racemic) [Example 1.25] |  |  | 90 | 90 | 95 |  |  | 100 | 95 |  | solid, m.p.: 213.3° C.; logp (HCOOH): 1.55; 1H-NMR (CDCl3, 400 MHZ, δ in ppm): 2.10 | 100 | 100 | 100 | 100 | 100 | 100 | 100 | 100 | 90 | Pre-emergence herbicidal effect CYPES (Cyperus esculentus): 100%; Post-emergence herbicidal effect ALOMY (Alopecurus myosuroides [21]): 90%
